The values that follow come from patent US6756362B2, “Methods and compositions based on inhibition of cell invasion and fibrosis by anionic polymers” (priority 1991, dated 2004).

One experiment deals with rat astrocytes (RAST). The experiment can be described thus: Stripe assay, RAST. It is filed as cell-based. Further details: key: Bands that were completely inhibitory to cell adhesion, migration and/or invasion were evaluated as (−); those allowing limited cell adhesion, migration and/or invasion (+/−); those permissive to cell adhesion, migration and/or invasion as (+). Conditions: for DS-PG Effect on Adhesion, Migration and Invasion: 2 days following plating. The procedure: Rat astrocytes (RAST) cultures were prepared from P-1-3 rat brain cortices. The cortices were stripped of connective tissue and blood vessels, cut into small pieces and dissociated in 0.5% collagenase (Gibco Laboratories) for 20 min at 37° C., followed by further dissociation in 0.25% trypsin for 15 min, and 0.04 mg/ml DNAse (Sigma) and 0.52 mg/ml soy bean trypsin inhibitor for 5 min at 37° C. The cells were subsequently mechanically dissociated by trituration with a Pastuer pipette and plated at 1.5×10^7 cells in a poly-L-lysine (PLL, Sigma) coated 75 cm^2 flask. The flask was shaken 4 hrs following plating to remove less adherent non-astrocytic oligodendrocytes and neurons.
(§1) The stripe assay was performed essentially as described by Snow et al. (1990, Exp. Neural. 309:111-130). Tissue culture Petri dishes (Falcon, 60 mm) were precoated with 0.5 ml of a mixture of 5 cm^2 section nitrocellulose (Schleicher & Schuell, Type BA 85) dissolved in 6 ml methanol, and air dried in a laminar flow hood. Cellulose filter paper (Whatman #1) was cut into 12×0.35 mm strips with a McIlwain tissue chopper (The Mickle Laboratory Engineering Co., LTD). A strip of filter paper was soaked in 20 μl of a solution of DS-PG or KS/CS-PG and LN at given concentration, blotted onto the nitrocellulose-coated dish for 30 sec. and removed. The test solution was allowed to air dry. This process was repeated several times creating clearly defined, equally spaced parallel bands of uniform width on the plates. A thin layer of 0.1 or 1 mg/ml LN was then spread evenly across the bands with a bent glass Pasteur pipet, and covered with culture medium (FIG. 1).
(§2) Plates were seeded with cell suspensions of 2.0×10^5 cells/ml or 4-10 DRG explants. The cultures were assessed for degree of adhesion, migration and/or invasion of the DS-PG or KS/CS-PG bands over a period of up to 7 days using a Leitz Fluovert microscope.
(§3) Bands that were completely inhibitory to cell adhesion, migration and/or invasion were evaluated as (−), those allowing limited cell adhesion, migration and/or invasion (+/−), and those permissive to cell adhesion, migration and/or invasion as (+). cell adhesion was defined as the initial interaction between the cell surface and the substratum which results in cell attachment and spreading. Cell migration was operationally defined as cell movement within the same substratum, and cell invasion was operationally defined as cell movement from one type of substratum to another type of substratum.

For another experiment, the system named is rat C6 glioma. The experiment can be described thus: Stripe assay, C6. It is filed as cell-based. On the set-up: key to DS-PG Effect on Adhesion, Migration and Invasion / Effect of KS/CS-PG on Cell Migration: Bands that were completely inhibitory to cell adhesion, migration and/or invasion were evaluated as (−); those allowing limited cell adhesion, migration and/or invasion (+/−); those permissive to cell adhesion, migration and/or invasion as (+). The settings on record: for DS-PG Effect on Adhesion, Migration and Invasion / Effect of KS/CS-PG on Cell Migration: C6; for DS-PG Effect on Adhesion, Migration and Invasion: 2 days following plating. As to the method:
(§4) Cell lines. Murine 3T3 fibroblast (NIH), rat C6 glioma (Paganetti et al., 1988, J. Cell Biol. 107:2281) and MCG-28 young immortalized mouse astrocyte (a murine neonatal astrocyte line immortalized with SV-40) were grown in medium composed of Dulbecco's modified Eagle medium (DMEM), 10% fetal calf serum (Gibco Laboratories), and penicillin G/streptomycin (100 units/ml, 100 μg/ml respectively, Gibco Laboratories). For the stripe assay, confluent plates were disaggregated with 0.05% trypsin, 0.53 mM EDTA (Gibco Laboratories) and seeded at 200,000 cells/ml (3 ml/plate). For the cell adhesion assays, confluent cultures were disaggregated with 0.03% EDTA and plated in a 96-well microtiter plate at 20,000-100,000 cells per well. PC12 cells, a pheochromocytoma cell line (Green L. A. & Tischler A. S., 1976, Proc. Natl. Acad. Sci. U.S.A. 73:2424), were grown in medium containing Roswell Park Memorial Institute (RPMI) medium 1640 (Gibco Laboratories), 10% horse serum, 5% fetal calf serum (FCS), and penicillin G/streptomycin (100 units/ml, 100 μg/ml respectively, Gibco Laboratories). The cells were disaggregated with 0.03% EDTA and plated in a 96-well microtiter plate at 3,000 cells per well.
as §1, §2, §3

The test system of a further experiment is 3T3 cells. The experiment can be described thus: Colorimetric cell adhesion assay, 3T3. Format: cell-based, mouse. The settings on record: 3T3 cells on PLL; 4 hr incubation; FIG. 7. The procedure: as §4
(§5) Microtiter plates were precoated with poly-L-lysine and blocked with 1% BSA in DMEM for 20 min prior to addition of cells. The cells were plated on the precoated 96-well plates and test compounds were added to the culture medium. Following 4-24 hr incubation at 36° C., 5% C02, in a humidified incubator, the tetrazolium salt MTT (3-(4,5-dimethylthazol-2-yl)-2,5-diphenyl tetrazolium bromide) was added. The cultures were incubated for 2 hr to allow mitochondrial succinate dehydrogenase, found in viable cells, to […] the MTT to its formazan blue reaction product. The media was aspirated and the wells were rinsed to remove all detached cells. The formazan blue reaction product in attached cells was solubilized with 0.08 N HCl in isopropanol, and the plates were read in a microtiter plate reader (Dynatech MR4000) at 570 nm with a 630 nm reference filter. The resulting optical density readings are directly related to the number of viable cells in the well (Mosmann, T., 1983, J. Immunol. Methods 65:55-63). The samples were run in 3-6 replicates per point and the SD was less than 5%.
(§6) The adhesion of fibroblasts to PLL-coated microtiter plates in the presence of test compounds in the culture medium was evaluated using an MTT assay as described in Section 8.1.5., supra, and the number of attached cells was expressed as percent of control. The effect of 4 hr incubation in the presence of heparin, pentosan polysulfate, dextran sulfate, and dextran on adhesion of rat meningeal fibroplasts (RMF) and 3T3 cells to PLL is shown in FIG. 7.

The test system of experiment [1] is rat meningeal fibroblasts (RMF). The experiment can be described thus: Colorimetric cell adhesion assay, RMF. Format: cell-based. The settings on record: RMF on PLL; 4 hr incubation; FIG. 7. As to the method:
Primary Cell Cultures. Primary cultures of rat meningeal fibroblasts (RMF) were obtained from P-3 rat pups. The tissue was removed from the animals and transferred to Leibovitz's L-15 with L-glutamine medium. The tissue was then cut into small pieces with a scalpel blade, enzymatically dissociated with 0.25% trypsin in Ca^2+/Mg^2+ free Hank's balanced salt solution (CMF-HBSS, Gibco Laboratories) for 20 minutes at 37° C., and mechanically triturated. The cells were rinsed with DMEM plus 10% FCS, concentrated by centrifugation and subsequently diluted in DMEM with 10% FCS for plating at 5.0×10^6 cells per 75 cm^2 flask. Adult rat sciatic nerve fibroblasts (RSF) were obtained by explantation of 1 mm sections of adult rat sciatic nerve.
as §5, §6

The mark [2] stands for this setting: 0.1 mg/ml DS-PG + 20 μg/ml LN stripes.
The mark [3] stands for this setting: 0.2 mg/ml DS-PG + 20 μg/ml LN stripes.
[4] abbreviates: 0.4 mg/ml DS-PG + 20 μg/ml LN stripes.
Setting [5] is: 0.8 mg/ml DS-PG + 20 μg/ml LN stripes.
Setting [6] is: 0.25 mg/ml KS/CS-PG + LN stripes.
[7] abbreviates: 0.5 mg/ml KS/CS-PG + LN stripes.
Where [8] appears, read: 1.0 mg/ml KS/CS-PG + LN stripes.
[9] abbreviates: 2.7 mg/ml KS/CS-PG + LN stripes.

Bounds are passed on as bounds.

For the substance Dermatan sulfate proteoglycan [DS-PG], the “DS-PG Effect on Adhesion, Migration and Invasion” value is reported as “+” with rat astrocytes (RAST) (setting [2]); “+/−” in the experiment with rat astrocytes (RAST) (setting [3]); “+/−” in the experiment with rat astrocytes (RAST) (setting [4]); “−” in the experiment on rat astrocytes (RAST) (setting [5]); “+” in the experiment with rat C6 glioma (setting [2]); “+/−” with rat C6 glioma (setting [3]). Besides, the “DS-PG Effect on Adhesion, Migration and Invasion” value in the experiment on rat C6 glioma (setting [4]) and in the experiment with rat C6 glioma (setting [5]) was “−” each time. Further, the “stability of clear stripes (inhibition of C6 cells)” value with rat C6 glioma (0.8 mg/ml DS-PG, followed up to 6 days) was at least 4 days.
Turning to Heparin, the “number of attached cells compared to untreated controls” value (in the experiment on 3T3 cells; in experiment [1]) was “decreased” in each case.
With dextran [reference compound], the “number of attached cells compared to untreated controls” value (in the experiment with 3T3 cells; in experiment [1]) was “slight increase” each time.
As for dextran sulfate, the “number of attached cells compared to untreated controls” value (with 3T3 cells; in experiment [1]) was “decreased” in each case.
“keratan sulfate/chrondroitin sulfate-proteoglycans [KS/CS-PG]”: the “Effect of KS/CS-PG on Cell Migration” value in the experiment with rat astrocytes (RAST) (0.12 mg/ml KS/CS-PG + LN stripes) is on record as “+”; in the experiment with rat astrocytes (RAST) (setting [6]), “+/−”; with rat astrocytes (RAST) (setting [7]), “+/−”; in the experiment on rat astrocytes (RAST) (setting [8]), “+/−”; in the experiment with rat astrocytes (RAST) (setting [9]), “−”; in the experiment with rat C6 glioma (setting [6]) it was “+”. Further, the “Effect of KS/CS-PG on Cell Migration” value with rat C6 glioma (setting [7]) was “+”; in the experiment on rat C6 glioma (setting [8]) it was “+”; in the experiment on rat C6 glioma (setting [9]), “+/−”. For the same substance, in the experiment on rat C6 glioma (2.7 mg/ml KS/CS-PG, following plating), the “time by which C6 overcame inhibition” value is at most 48 h.
